Measurements reported in the Kinase Knowledgebase extract (Sharma et al. 2016).
pIC50: −log10 of the molar value.

target: PIK3CD (Human) (UniProt O00329); assay: Inhibition of PIK3CD Kinase Activity
Sequence (O00329 whole entry, looked up): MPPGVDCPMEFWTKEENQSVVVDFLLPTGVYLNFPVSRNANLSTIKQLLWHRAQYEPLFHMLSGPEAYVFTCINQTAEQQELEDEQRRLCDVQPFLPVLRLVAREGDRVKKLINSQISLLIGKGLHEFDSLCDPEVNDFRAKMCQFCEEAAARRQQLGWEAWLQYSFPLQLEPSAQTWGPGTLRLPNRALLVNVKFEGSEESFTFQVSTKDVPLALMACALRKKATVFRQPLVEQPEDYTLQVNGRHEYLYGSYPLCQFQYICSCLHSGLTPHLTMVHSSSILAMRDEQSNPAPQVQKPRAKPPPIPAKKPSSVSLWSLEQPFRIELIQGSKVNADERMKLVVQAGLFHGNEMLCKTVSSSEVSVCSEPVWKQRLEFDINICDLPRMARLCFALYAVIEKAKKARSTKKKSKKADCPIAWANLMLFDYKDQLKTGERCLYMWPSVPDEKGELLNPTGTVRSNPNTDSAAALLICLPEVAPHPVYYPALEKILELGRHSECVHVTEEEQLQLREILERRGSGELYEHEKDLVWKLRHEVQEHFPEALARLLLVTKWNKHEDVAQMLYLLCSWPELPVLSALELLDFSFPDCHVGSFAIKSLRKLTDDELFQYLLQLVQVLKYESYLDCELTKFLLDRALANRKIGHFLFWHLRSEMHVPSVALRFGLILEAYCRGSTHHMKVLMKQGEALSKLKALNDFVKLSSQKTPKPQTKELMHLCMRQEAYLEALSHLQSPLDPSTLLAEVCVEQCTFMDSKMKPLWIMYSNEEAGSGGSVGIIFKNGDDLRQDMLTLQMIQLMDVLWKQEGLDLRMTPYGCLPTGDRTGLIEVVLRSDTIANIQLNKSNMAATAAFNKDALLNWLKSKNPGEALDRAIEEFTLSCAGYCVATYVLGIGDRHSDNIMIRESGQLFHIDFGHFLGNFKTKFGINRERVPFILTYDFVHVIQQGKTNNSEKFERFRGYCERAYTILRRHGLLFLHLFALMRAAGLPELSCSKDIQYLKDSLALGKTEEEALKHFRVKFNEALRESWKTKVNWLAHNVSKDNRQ

pIC50, > 6.30:
CCn1c(CN2CCN3CCC[C@H]3C2)nc2c(N3CCOCC3)nc(-c3cccc4[nH]ccc34)nc21, CCn1c(CN2CCC(N3CCOCC3)CC2)nc2c(N3CCOCC3)nc(-c3c(F)ccc4[nH]ccc34)nc21, CCn1c(CN2CCN(C3CCS(=O)(=O)CC3)CC2)nc2c(N3CCOCC3)nc(-c3cccc4[nH]ccc34)nc21, CC(C)(C(N)=O)N1CCN(Cc2nc3c(N4CCOCC4)nc(-c4c(F)ccc5[nH]ccc45)nc3n2CCO)CC1, CCn1c(CN2CCC(N3CCS(=O)(=O)CC3)CC2)nc2c(N3CCOCC3)nc(-c3c(F)ccc4[nH]ccc34)nc21, CCn1c(CN2CC(N(C)C(C)(C)C(N)=O)C2)nc2c(N3CCOCC3)nc(-c3cccc4[nH]ccc34)nc21, CCn1c(CN2CC3COCC(C2)N3)nc2c(N3CCOCC3)nc(-c3c(F)ccc4[nH]ccc34)nc21, CCn1c(CN2CCC(N(C)S(C)(=O)=O)CC2)nc2c(N3CCOCC3)nc(-c3c(F)ccc4[nH]ccc34)nc21, CCn1c(CN2CCC(N3CCC3=O)CC2)nc2c(N3CCOCC3)nc(-c3cccc4[nH]ccc34)nc21, CCn1c(CN2CCC(n3cccn3)CC2)nc2c(N3CCOCC3)nc(-c3c(F)ccc4[nH]ccc34)nc21, CCn1c(CN2CCC3(CC2)CNC(=O)C3)nc2c(N3CCOCC3)nc(-c3c(F)ccc4[nH]ccc34)nc21, CC(C)(C(N)=O)N1CCN(Cc2nc3c(N4CCOCC4)nc(-c4cccc5[nH]ccc45)nc3[nH]2)CC1, CN(C)C1CCN(Cc2nc3c(N4CCOCC4)nc(-c4c(F)ccc5[nH]ccc45)nc3[nH]2)CC1, CCn1c(CN2CCC(N(C)S(C)(=O)=O)CC2)nc2c(N3CCOCC3)nc(-c3cccc4[nH]ccc34)nc21, CCn1c(CN2CCN3C(=O)COC[C@H]3C2)nc2c(N3CCOCC3)nc(-c3c(F)ccc4[nH]ccc34)nc21, CCn1c(CN2CCc3ccccc3C2)nc2c(N3CCOCC3)nc(-c3c(F)ccc4[nH]ccc34)nc21, CCn1c(CN2CCN(C(C)(C)C(N)=O)CC2)nc2c(N3CCOCC3)nc(-c3cccc4[nH]ccc34)nc21, CCn1c(CN2CCC(N3CCCC3=O)CC2)nc2c(N3CCOCC3)nc(-c3cccc4[nH]ccc34)nc21, CCn1c(CN2CCN(C3CCOCC3)CC2)nc2c(N3CCOCC3)nc(-c3c(F)ccc4[nH]ccc34)nc21, CCn1c(CN2CCC(N3CCOCC3=O)CC2)nc2c(N3CCOCC3)nc(-c3c(F)ccc4[nH]ccc34)nc21, CCn1c(CN2CCC(c3cc[nH]n3)CC2)nc2c(N3CCOCC3)nc(-c3cccc4[nH]ccc34)nc21, CCn1c(CN2CCN(C(C)C)C(=O)C2)nc2c(N3CCOCC3)nc(-c3c(F)ccc4[nH]ccc34)nc21, CCn1c(CN2CCC(N(C)C)CC2)nc2c(N3CCOCC3)nc(-c3cccc4[nH]ccc34)nc21, CCn1c(CN2C[C@@H](C)N(CC(N)=O)[C@@H](C)C2)nc2c(N3CCOCC3)nc(-c3c(F)ccc4[nH]ccc34)nc21, CCn1c(CN2CCN(CC(N)=O)C(C)(C)C2)nc2c(N3CCOCC3)nc(-c3c(F)ccc4[nH]ccc34)nc21, Cn1c(CN2CCN(C(C)(C)C(N)=O)CC2)nc2c(N3CCOCC3)nc(-c3cccc4[nH]ccc34)nc21, CCn1c(CN2C[C@@H](C)N(CC(N)=O)[C@@H](C)C2)nc2c(N3CCOCC3)nc(-c3cccc4[nH]ccc34)nc21, CCn1c(CN2CCN(CC(F)(F)F)CC2)nc2c(N3CCOCC3)nc(-c3cccc4[nH]ccc34)nc21, CCn1c(CN2CCC(C(=O)O)CC2)nc2c(N3CCOCC3)nc(-c3c(F)ccc4[nH]ccc34)nc21, CCn1c(CN2CCN(CC(N)=O)C(C)(C)C2)nc2c(N3CCOCC3)nc(-c3cccc4[nH]ccc34)nc21, CCn1c(CN2CCN3CCOC[C@H]3C2)nc2c(N3CCOCC3)nc(-c3cccc4[nH]ccc34)nc21, CCn1c(CN2CCC(N3CCC3)CC2)nc2c(N3CCOCC3)nc(-c3c(F)ccc4[nH]ccc34)nc21, CCn1c(CN2CCc3ccccc3C2)nc2c(N3CCOCC3)nc(-c3cccc4[nH]ccc34)nc21, CCn1c(CN2CCC(N3CCOCC3)CC2)nc2c(N3CCOCC3)nc(-c3cccc4[nH]ccc34)nc21, CCn1c(CN2CC(NC(C)(C)C(N)=O)C2)nc2c(N3CCOCC3)nc(-c3cccc4[nH]ccc34)nc21, CCn1c(CN2CCC(n3cccn3)CC2)nc2c(N3CCOCC3)nc(-c3cccc4[nH]ccc34)nc21, CCn1c(CN2CC(N3CCOCC3)C2)nc2c(N3CCOCC3)nc(-c3cccc4[nH]ccc34)nc21, CCn1c(CN2CCN3CCC[C@H]3C2)nc2c(N3CCOCC3)nc(-c3c(F)ccc4[nH]ccc34)nc21, CCn1c(CN2CCC3(CCNC3=O)CC2)nc2c(N3CCOCC3)nc(-c3cccc4[nH]ccc34)nc21, CCn1c(CN2CCC(N3CCCC3=O)CC2)nc2c(N3CCOCC3)nc(-c3c(F)ccc4[nH]ccc34)nc21, CCn1c(CN2CCC(C(N)=O)(N3CCOCC3)CC2)nc2c(N3CCOCC3)nc(-c3cccc4[nH]ccc34)nc21, CCn1c(CN2CCC(N3CC(F)C3)CC2)nc2c(N3CCOCC3)nc(-c3cccc4[nH]ccc34)nc21, CCn1c(CN2CCC(N(C)C)CC2)nc2c(N3CCOCC3)nc(-c3c(F)ccc4[nH]ccc34)nc21, CCn1c(CN2CCC(N3CCS(=O)(=O)CC3)CC2)nc2c(N3CCOCC3)nc(-c3cccc4[nH]ccc34)nc21, CCn1c(CN2CC(=O)NC(C)(C)C2)nc2c(N3CCOCC3)nc(-c3c(F)ccc4[nH]ccc34)nc21, CCn1c(CN2CCC(C(N)=O)CC2)nc2c(N3CCOCC3)nc(-c3c(F)ccc4[nH]ccc34)nc21, CCn1c(CN2CCC3(CC2)CNC(=O)C3)nc2c(N3CCOCC3)nc(-c3cccc4[nH]ccc34)nc21, CN(C)C1CCN(Cc2nc3c(N4CCOCC4)nc(-c4cccc5[nH]ccc45)nc3[nH]2)CC1, CCn1c(CN2CCC(N3CCOC3=O)CC2)nc2c(N3CCOCC3)nc(-c3c(F)ccc4[nH]ccc34)nc21, CCn1c(CN2CCC3(CCNC3=O)CC2)nc2c(N3CCOCC3)nc(-c3c(F)ccc4[nH]ccc34)nc21, CC(C)(C(N)=O)N1CCN(Cc2nc3c(N4CCOCC4)nc(-c4c(F)ccc5[nH]ccc45)nc3[nH]2)CC1, CCn1c(CN2CCN(C3CCS(=O)(=O)CC3)CC2)nc2c(N3CCOCC3)nc(-c3c(F)ccc4[nH]ccc34)nc21, CCn1c(CN2CC(N3CCOCC3)C2)nc2c(N3CCOCC3)nc(-c3c(F)ccc4[nH]ccc34)nc21, c1cc(-c2nc(N3CCOCC3)c3nc(CN4CCN5CCOC[C@H]5C4)[nH]c3n2)c2cc[nH]c2c1, CCn1c(CN2CCN(C3CCOCC3)CC2)nc2c(N3CCOCC3)nc(-c3cccc4[nH]ccc34)nc21, CCn1c(CN2CC(NC(C)(C)C(N)=O)C2)nc2c(N3CCOCC3)nc(-c3c(F)ccc4[nH]ccc34)nc21, CCn1c(CN2CC[C@H](NC(C)(C)C(N)=O)C2)nc2c(N3CCOCC3)nc(-c3c(F)ccc4[nH]ccc34)nc21, CCn1c(CN2CCC(N3CC(F)C3)CC2)nc2c(N3CCOCC3)nc(-c3c(F)ccc4[nH]ccc34)nc21, CCn1c(CN2CCC(N3CCOCC3=O)CC2)nc2c(N3CCOCC3)nc(-c3cccc4[nH]ccc34)nc21, CCn1c(CN2CCC(N3CCOC3=O)CC2)nc2c(N3CCOCC3)nc(-c3cccc4[nH]ccc34)nc21, CCn1c(CN2CC(=O)NC(C)(C)C2)nc2c(N3CCOCC3)nc(-c3cccc4[nH]ccc34)nc21, CCn1c(CN2CCC3(CC2)CNC(=O)CO3)nc2c(N3CCOCC3)nc(-c3c(F)ccc4[nH]ccc34)nc21, CCn1c(CN2CCC(C(=O)O)(N3CCOCC3)CC2)nc2c(N3CCOCC3)nc(-c3c(F)ccc4[nH]ccc34)nc21, CCn1c(CN2CCC(C)(C(N)=O)CC2)nc2c(N3CCOCC3)nc(-c3c(F)ccc4[nH]ccc34)nc21, CCn1c(CN2CCC(N3CCCCC3=O)CC2)nc2c(N3CCOCC3)nc(-c3c(F)ccc4[nH]ccc34)nc21, CCn1c(CN2CCC(N3CC(F)(F)C3)CC2)nc2c(N3CCOCC3)nc(-c3cccc4[nH]ccc34)nc21, CCn1c(CN2CCN(CC(N)=O)[C@@H](C(C)C)C2)nc2c(N3CCOCC3)nc(-c3c(F)ccc4[nH]ccc34)nc21, CCn1c(CN2CCOC(C)(C)C2)nc2c(N3CCOCC3)nc(-c3cccc4[nH]ccc34)nc21, CCn1c(CN2CCC(N3CC(F)(F)C3)CC2)nc2c(N3CCOCC3)nc(-c3c(F)ccc4[nH]ccc34)nc21, CCn1c(CN2CCC(c3cc[nH]n3)CC2)nc2c(N3CCOCC3)nc(-c3c(F)ccc4[nH]ccc34)nc21, CCn1c(CN2CCN(CC(N)=O)[C@@H](C(C)C)C2)nc2c(N3CCOCC3)nc(-c3cccc4[nH]ccc34)nc21, CCn1c(CN2CCN3CCOC[C@H]3C2)nc2c(N3CCOCC3)nc(-c3c(F)ccc4[nH]ccc34)nc21, CCn1c(CN2CC(N(C)C(C)(C)C(N)=O)C2)nc2c(N3CCOCC3)nc(-c3c(F)ccc4[nH]ccc34)nc21
